Laboratory results as given in ChEMBL document CHEMBL1158830, “Digitoxin inhibits the growth of cancer cell lines at concentrations commonly found in cardiac patients” (J Nat Prod, 2005).
Active and inactive are the calls of the source. The calls are words filed in the database; no cut-off is given here.

Legend:
TK-10 [1] = assay: Cytotoxicity against human TK10 cells after 48 hrs by SRB assay; assay type: functional, cell-based; details: TK-10, 48 h
MCF7 = assay: Cytotoxicity against human MCF7 cells after 48 hrs by SRB assay; assay type: functional, cell-based; details: MCF7, 48 h
UACC-62 = assay: Cytotoxicity against human UACC62 cells after 48 hrs by SRB assay; assay type: functional, cell-based; details: UACC-62, 48 h
Homo sapiens = species: Homo sapiens; assay: Plasma concentration in human; assay type: ADME, organism-based; details: in vivo
K562 = assay: Cytotoxicity against human K562 cells by XTT assay; assay type: functional, cell-based
TK-10 [2] = assay: Induction of apoptosis in human TK10 cells assessed as viable cells at 3 nM for 48 hrs measured after 3 days of drug removal by fluorescence microscopy assay; assay type: functional; details: read-out: Activity
TK-10 [3] = assay: Induction of apoptosis in human TK10 cells assessed as apoptotic cells at 3 nM for 48 hrs measured after 3 days of drug removal by fluorescence microscopy assay; assay type: functional
TK-10 [4] = assay: Induction of apoptosis in human TK10 cells assessed as necrotic cells at 3 nM for 48 hrs measured after 3 days of drug removal by fluorescence microscopy assay; assay type: functional
[5] = biological target: DNA topoisomerase 2-alpha (Homo sapiens) (UniProt P11388); assay: Inhibition of topoisomerase 2alpha-mediated cleavage of double-stranded pRYG DNA assessed as linear DNA at 30 nM by agarose gel electrophoresis
DNA topoisomerase 2-alpha (Homo sapiens), sequence (P11388 whole entry): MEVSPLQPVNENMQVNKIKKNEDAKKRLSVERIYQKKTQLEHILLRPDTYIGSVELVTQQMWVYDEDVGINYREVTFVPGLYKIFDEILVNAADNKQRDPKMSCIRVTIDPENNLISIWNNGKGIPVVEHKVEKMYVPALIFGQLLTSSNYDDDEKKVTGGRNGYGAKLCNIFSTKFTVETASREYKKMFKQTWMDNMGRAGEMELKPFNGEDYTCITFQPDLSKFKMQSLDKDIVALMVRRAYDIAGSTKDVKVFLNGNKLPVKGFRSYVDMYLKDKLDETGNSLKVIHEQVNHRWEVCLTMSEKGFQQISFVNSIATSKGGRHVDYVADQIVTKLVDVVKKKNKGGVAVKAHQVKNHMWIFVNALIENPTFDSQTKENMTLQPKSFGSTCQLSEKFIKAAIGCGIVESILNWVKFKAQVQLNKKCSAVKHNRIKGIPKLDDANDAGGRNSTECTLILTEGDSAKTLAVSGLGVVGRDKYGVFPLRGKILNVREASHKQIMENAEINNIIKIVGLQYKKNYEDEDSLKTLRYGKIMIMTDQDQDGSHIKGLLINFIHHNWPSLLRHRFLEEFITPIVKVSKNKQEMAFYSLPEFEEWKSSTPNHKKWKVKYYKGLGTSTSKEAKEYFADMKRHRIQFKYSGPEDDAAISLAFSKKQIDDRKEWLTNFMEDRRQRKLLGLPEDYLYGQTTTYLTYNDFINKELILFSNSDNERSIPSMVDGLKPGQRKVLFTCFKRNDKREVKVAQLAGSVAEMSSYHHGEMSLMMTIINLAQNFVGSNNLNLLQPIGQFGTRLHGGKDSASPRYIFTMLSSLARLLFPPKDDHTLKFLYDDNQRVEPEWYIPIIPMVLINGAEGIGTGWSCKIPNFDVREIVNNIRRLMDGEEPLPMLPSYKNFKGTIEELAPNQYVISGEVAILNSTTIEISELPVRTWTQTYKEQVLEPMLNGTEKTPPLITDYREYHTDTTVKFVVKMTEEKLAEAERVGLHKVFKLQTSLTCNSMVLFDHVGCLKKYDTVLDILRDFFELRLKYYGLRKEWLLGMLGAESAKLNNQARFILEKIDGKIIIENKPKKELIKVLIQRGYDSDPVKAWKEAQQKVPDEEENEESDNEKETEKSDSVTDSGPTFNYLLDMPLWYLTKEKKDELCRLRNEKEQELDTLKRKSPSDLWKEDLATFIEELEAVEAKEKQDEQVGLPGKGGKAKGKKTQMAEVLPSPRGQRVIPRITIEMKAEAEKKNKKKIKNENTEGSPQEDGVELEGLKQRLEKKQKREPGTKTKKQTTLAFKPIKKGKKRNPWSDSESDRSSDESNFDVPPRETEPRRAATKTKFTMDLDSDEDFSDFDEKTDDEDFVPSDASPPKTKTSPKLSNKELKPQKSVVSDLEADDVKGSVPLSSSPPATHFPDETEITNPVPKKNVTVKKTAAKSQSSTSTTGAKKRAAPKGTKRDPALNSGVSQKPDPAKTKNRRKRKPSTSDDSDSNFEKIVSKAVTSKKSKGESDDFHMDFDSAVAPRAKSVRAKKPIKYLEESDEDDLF

[6] = biological target: DNA topoisomerase 2-alpha (Homo sapiens) (UniProt P11388); assay: Inhibition of topoisomerase 2alpha-mediated cleavage of double-stranded pRYG DNA assessed as linear DNA at 100 nM by agarose gel electrophoresis
[7] = biological target: DNA topoisomerase 2-alpha (Homo sapiens) (UniProt P11388); assay: Inhibition of topoisomerase 2alpha-mediated cleavage of double-stranded pRYG DNA assessed as linear DNA at 100 uM by agarose gel electrophoresis
[8] = biological target: DNA topoisomerase 2-beta (Homo sapiens) (UniProt Q02880); assay: Inhibition of topoisomerase 2beta in human K562 cells assessed as cleavage of supercoiled pRYG DNA at 300 nM by TARDIS assay; assay type: cell-based; details: TDE = time-dependent effect
DNA topoisomerase 2-beta (Homo sapiens), sequence (Q02880 whole entry): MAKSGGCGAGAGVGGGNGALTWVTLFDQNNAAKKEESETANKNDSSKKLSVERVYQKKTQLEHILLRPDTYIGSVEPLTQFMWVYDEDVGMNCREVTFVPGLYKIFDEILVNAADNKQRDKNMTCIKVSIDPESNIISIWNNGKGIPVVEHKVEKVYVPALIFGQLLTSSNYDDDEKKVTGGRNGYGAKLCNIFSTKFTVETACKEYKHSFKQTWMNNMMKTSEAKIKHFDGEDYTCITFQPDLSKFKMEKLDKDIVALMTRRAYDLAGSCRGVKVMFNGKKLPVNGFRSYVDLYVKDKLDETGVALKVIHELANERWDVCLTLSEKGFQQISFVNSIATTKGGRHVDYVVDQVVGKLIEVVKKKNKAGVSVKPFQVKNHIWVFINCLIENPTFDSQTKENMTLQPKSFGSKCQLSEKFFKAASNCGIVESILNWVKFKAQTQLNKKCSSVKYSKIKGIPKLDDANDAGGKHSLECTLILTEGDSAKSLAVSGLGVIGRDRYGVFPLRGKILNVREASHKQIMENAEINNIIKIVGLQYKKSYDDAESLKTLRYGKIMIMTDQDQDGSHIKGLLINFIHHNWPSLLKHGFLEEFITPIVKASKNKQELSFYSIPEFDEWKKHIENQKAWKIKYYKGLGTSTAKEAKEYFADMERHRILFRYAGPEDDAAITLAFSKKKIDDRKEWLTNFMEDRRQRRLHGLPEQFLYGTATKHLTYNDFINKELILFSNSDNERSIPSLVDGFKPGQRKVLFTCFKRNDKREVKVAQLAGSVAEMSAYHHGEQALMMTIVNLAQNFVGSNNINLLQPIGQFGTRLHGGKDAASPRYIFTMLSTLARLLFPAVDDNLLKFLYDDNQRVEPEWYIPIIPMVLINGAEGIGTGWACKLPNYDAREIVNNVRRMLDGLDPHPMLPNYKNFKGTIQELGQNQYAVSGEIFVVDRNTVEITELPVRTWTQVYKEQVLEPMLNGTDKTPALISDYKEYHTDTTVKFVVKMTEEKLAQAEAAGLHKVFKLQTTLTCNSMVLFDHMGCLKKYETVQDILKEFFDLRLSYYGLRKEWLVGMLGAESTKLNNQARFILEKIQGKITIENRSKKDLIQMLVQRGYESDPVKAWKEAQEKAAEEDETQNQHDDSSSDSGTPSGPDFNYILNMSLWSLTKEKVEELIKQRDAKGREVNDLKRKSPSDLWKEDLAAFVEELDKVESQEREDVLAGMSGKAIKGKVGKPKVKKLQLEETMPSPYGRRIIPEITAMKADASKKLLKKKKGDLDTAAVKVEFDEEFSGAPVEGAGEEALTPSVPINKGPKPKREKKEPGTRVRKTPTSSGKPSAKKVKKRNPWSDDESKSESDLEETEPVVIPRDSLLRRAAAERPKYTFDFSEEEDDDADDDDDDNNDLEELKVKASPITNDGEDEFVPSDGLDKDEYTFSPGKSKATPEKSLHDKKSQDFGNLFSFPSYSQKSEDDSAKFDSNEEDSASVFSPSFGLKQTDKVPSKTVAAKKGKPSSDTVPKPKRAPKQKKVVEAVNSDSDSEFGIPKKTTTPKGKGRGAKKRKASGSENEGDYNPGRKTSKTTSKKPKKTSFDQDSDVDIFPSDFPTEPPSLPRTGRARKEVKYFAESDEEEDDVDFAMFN

[9] = biological target: DNA topoisomerase 2-beta (Homo sapiens) (UniProt Q02880); assay: Inhibition of topoisomerase 2beta in human K562 cells assessed as cleavage of supercoiled pRYG DNA at 300 nM after 0.5 hrs by TARDIS assay relative to control; assay type: cell-based
[10] = biological target: DNA topoisomerase 2-beta (Homo sapiens) (UniProt Q02880); assay: Inhibition of topoisomerase 2beta in human K562 cells assessed as cleavage of supercoiled pRYG DNA at 300 nM after 24 hrs by TARDIS assay; assay type: cell-based

SMILES	IC50 (TK-10 [1])	IC50 (MCF7)	IC50 (UACC-62)	other results
C[C@H]1O[C@@H](O[C@H]2[C@@H](O)C[C@H](O[C@H]3[C@@H](O)C[C@H](O[C@H]4CC[C@@]5(C)[C@H](CC[C@@H]6[C@@H]5C[C@@H](O)[C@]5(C)[C@@H](C7=CC(=O)OC7)CC[C@]65O)C4)O[C@@H]3C)O[C@@H]2C)C[C@H](O)[C@@H]1O [DIGOXIN]	0.0146 µM	0.0241 µM	0.0295 µM	concentration (Homo sapiens): 0.6 nM; IC50 (K562): 0.0282 µM
COc1cc([C@@H]2c3cc4c(cc3[C@@H](O[C@@H]3O[C@@H]5CO[C@@H](C)O[C@H]5[C@H](O)[C@H]3O)[C@H]3COC(=O)[C@H]23)OCO4)cc(OC)c1O [ETOPOSIDE]	9.95 µM	0.878 µM	1.13 µM	–
C[C@H]1O[C@@H](O[C@H]2[C@@H](O)C[C@H](O[C@H]3[C@@H](O)C[C@H](O[C@H]4CC[C@@]5(C)[C@H](CC[C@@H]6[C@@H]5CC[C@]5(C)[C@@H](C7=CC(=O)OC7)CC[C@]65O)C4)O[C@@H]3C)O[C@@H]2C)C[C@H](O)[C@@H]1O [DIGITOXIN]	0.0032 µM	0.0102 µM	0.0335 µM	concentration (Homo sapiens): 19.6 nM; IC50 (K562): 0.0064 µM; viability at 0.003 µM (TK-10 [2]): 52.1%; Activity (TK-10 [3]): 41.3%; Activity (TK-10 [4]): 6.6%; Activity [5]: inactive; Activity [6]: inactive; Activity [7]: Active; Activity [8]: tde; Activity [9]: Active; Activity [10]: Active
C[C@]12CC[C@H](O)C[C@H]1CC[C@@H]1[C@@H]2C[C@@H](O)[C@]2(C)[C@@H](C3=CC(=O)OC3)CC[C@]12O [DIGOXIGENIN]	0.318 µM	0.507 µM	0.416 µM	–
C[C@]12CC[C@H](O)C[C@H]1CC[C@@H]1[C@@H]2CC[C@]2(C)[C@@H](C3=CC(=O)OC3)[C@@H](O)C[C@]12O [GITOXIGENIN]	0.416 µM	1.81 µM	2.84 µM	–
C[C@H]1O[C@@H](O[C@H]2[C@@H](O)C[C@H](O[C@H]3[C@@H](O)C[C@H](O[C@H]4CC[C@@]5(C)[C@H](CC[C@@H]6[C@@H]5CC[C@]5(C)[C@@H](C7=CC(=O)OC7)[C@@H](O)C[C@]65O)C4)O[C@@H]3C)O[C@@H]2C)C[C@H](O)[C@@H]1O [GITOXIN]	0.131 µM	0.252 µM	0.369 µM	–
C[C@]12CC[C@H](O)C[C@H]1CC[C@@H]1[C@@H]2CC[C@]2(C)[C@@H](C3=CC(=O)OC3)CC[C@]12O [DIGITOXIGENIN]	0.0765 µM	0.194 µM	0.349 µM	–
